Tested on: Plasmodium falciparum
Test: GSK_TCMDC: Inhibition of Plasmodium falciparum 3D7 in whole erythrocytes, using parasite LDH activity as an index of growth.
Format: functional, organism-based
Conditions: Plasmodium falciparum, 3D7

| Compound | XC50 |
| --- | --- |
| CN1CC=C(c2c[nH]c3ccc(-c4ccccc4)cc23)CC1 | 775 nM |
| C/C=C/COc1ccc(-c2c(C)[nH]c(C)c(Cl)c2=O)cc1 | 197 nM |
| OC1CCCN(Cc2ccc(-c3cccc(-c4nc5ccccc5[nH]4)c3)cc2)C1 (stereo not given) | 1340 nM |
| O=S(=O)(NCCN1CCCC1)c1ccc(-c2ccc(CNC3Cc4ccccc4C3)cc2)s1 | 590 nM |
| Cc1nn(C)c(C)c1CN(Cc1nc(-c2cccc(Oc3ccccc3)c2)oc1C)C1CC1 | 392 nM |
| Cc1cc(N[C@@H](Cc2ccccc2)C(=O)NCc2cccc(F)c2)nc(NCCc2ccccc2)n1 | 1020 nM |
| C[C@H](NC(=O)c1c(CN2CCC(N3CCCCC3)CC2)c(-c2ccccc2)nc2cc(O)ccc12)C1CCCCC1 | 759 nM |
| Cc1cc(CN2CC[C@H](NC(=O)c3ccc(Cl)c(Cl)c3)C2)ccc1OCCN1CCNCC1 | 944 nM |
| CN1CCN(CC(=O)Nc2ccc(-c3ccc(-c4nc5ccccc5[nH]4)cc3)cc2)CC1 | 696 nM |
| c1ccc(C2CCC(N3CCC(N4CCCC4)CC3)CC2)cc1 (stereo not given) | 671 nM |
| CCCC(C)N(Cc1ccc(C(C)(C)C)cc1)C(=O)c1cccc(OC)c1 (stereo not given) | 336 nM |
| [O-][s+]1nc(NCCCN(Cc2cccs2)c2ccccn2)c(NCc2ccccc2)n1 (stereo not given) | 305 nM |
| Cc1nc(Nc2ccncc2)cc(-c2ccncc2)n1 | 725 nM |
| CC(Cc1ccc(CSC(C)C)cc1)NCC(O)c1cccc(Cl)c1 (stereo not given) | 603 nM |
| Cc1[nH]c(C)c(-c2ccc(OCc3cc(F)cc(F)c3)nc2)c(=O)c1Br | 103 nM |
| O=C(NCc1cccc(F)c1)Nc1ccc(-c2cccc(-c3nc4cc(F)ccc4[nH]3)c2)cc1 | 772 nM |
| CC(C)C(=O)NC(c1ccc(N(C)C)cc1)c1cc(Cl)c2cccnc2c1O (stereo not given) | 859 nM |
| COc1ccc(NC(=O)[C@H](Cc2ccccc2)Nc2cc(C)nc(NCCc3cccs3)n2)cc1 | 749 nM |
| CN1CCC(N2CCN(Cc3cccc(-c4ccc(-c5nc6cc(F)ccc6[nH]5)cc4)c3)CC2)CC1 | 107 nM |
| O=C(Nc1ccc(OC2CCN(Cc3ccccc3)C2)c(Cl)c1)c1ccco1 (stereo not given) | 406 nM |
| O=C(Nc1ccccc1F)NC1CCN(c2ccnc(Nc3ccc(F)cc3)n2)C1 (stereo not given) | 854 nM |
| N=C(N)NN=CC(=O)Nc1ccc(Cl)c(C(F)(F)F)c1 | 892 nM |
| Cc1cccc2nc(-c3ccc(-c4ccc(NC(=O)Nc5ccc(F)c(F)c5F)cc4)cc3)[nH]c12 | 273 nM |
| CN(C)CCN1CCN(Cc2cccc(-c3csc(-c4nc5ccccc5[nH]4)c3)c2)CC1 | 398 nM |

| Compound | XC50 |
| --- | --- |
| COc1ccc(CNCc2ccc(-c3ccc(CNCCc4ccccc4)cn3)cc2)cn1 | 1010 nM |
| CN1CCCC(CN2CCN(Cc3cccc(-c4cccc(-c5nc6ccccc6[nH]5)c4)c3)CC2)C1 (stereo not given) | 139 nM |
| COC(=O)C(C)NCC(=O)c1ccccc1 (stereo not given) | 115 nM |
| Cc1c(CNCCCNc2cc(=O)c3ccccc3[nH]2)sc(/C=N/O)c1Br | 1080 nM |
| COc1cc(Nc2nc(N)c3cc(OC)c(OC)cc3n2)cc(OC)c1 | 272 nM |
| CCc1c[nH]c2c(N3CCCC3=O)cc(C(=O)N[C@@H](Cc3ccccc3)[C@H](O)CNC(C)(C)c3cccc(OC)c3)cc12 | 192 nM |
| COc1cc(CNC[C@@H](O)[C@H](Cc2ccccc2)NC(=O)c2cc(OC(C)C)cc(N3CCCS3(=O)=O)c2)cc(OC)c1 | 798 nM |
| CCNc1cc(C(=O)N[C@@H](Cc2ccccc2Cl)[C@H](O)CNC(C)CCCC(C)C)cc(N2CCCCS2(=O)=O)c1 (stereo not given in full) | 928 nM |
| COc1cc(C2CCCCC2)c(OC)cc1CC1c2cc(O)c(Cl)cc2CCN1C (stereo not given) | 449 nM |
| Nc1ccnc(N2CCC(CCOc3ccnc4cc(Cl)ccc34)CC2)c1 | 1160 nM |
| COc1ccccc1CCNc1nc(C)cc(N[C@@H](Cc2ccccc2)C(=O)NCCOc2ccccc2)n1 | 1210 nM |
| Oc1ccc(Br)cc1C(O)CNCc1ccccc1OCc1ccccc1 (stereo not given) | 167 nM |
| O=C(/C=C/c1cccc(Cl)c1)NCCCCCN1CCC(c2c[nH]c3ccccc23)CC1 | 988 nM |
| CC[C@H]1CN2CC[C@H]1C[C@H]2[C@H](O)c1cc(N2CCCC2)nc2ccc(OC)cc12 | 44.8 nM |
| COc1ccc(C(=O)O)cc1OCc1ccccc1 | 819 nM |
| CC1(C)NC(N)=NC(=N)N1OCCCc1c(Cl)cccc1Cl | 3.2 nM |
| Cc1cccc(CNc2nc(C)cc(N[C@@H](Cc3ccccc3)C(=O)NCc3cccc(F)c3)n2)c1 | 1040 nM |
| c1ccc(Oc2ccc(Nc3ccnc4ccc(-c5ccccn5)cc34)cc2)cc1 | 1100 nM |
| CCC(C)NC(=O)Nc1ccc(-c2cccc(-c3nc4cc(C(F)(F)F)ccc4[nH]3)c2)cc1 (stereo not given) | 624 nM |
| Cc1ccccc1NC(=O)NC1CCN(CCCCCNC(=O)/C=C/c2ccc(Cl)c(Cl)c2)CC1 | 769 nM |
| CO/C(=C\C=C\c1cc2cc(Cl)c(Cl)cc2[nH]1)C(=O)NCCCN1CCCC[C@H]1C | 791 nM |
| COc1cccc(Nc2c(C(N)=O)cnc3ccc(-c4ccccc4)cc23)c1 | 771 nM |
| O=C(NCc1ccc(F)cc1)c1cnc(N2CCN(c3ccncc3)CC2)c(Cl)c1 | 1390 nM |
| O=C(Nc1nc2cc(S(=O)(=O)NCCCN3CCOCC3)ccc2n1CCCn1ccnc1)c1ccc(Cl)cc1 | 925 nM |

| Compound | XC50 |
| --- | --- |
| O=C(Nc1ccc(Cn2nc(Cl)c(N3CCNCC3)cc2=O)cc1)Nc1ccc(-c2ccccc2)cc1 | 753 nM |
| COc1cc(NCC(C)CNCc2cn(Cc3ccccc3)c3ccccc23)nc2ccccc12 (stereo not given) | 633 nM |
| COc1c(C2CCN(CCCCNC(=O)c3ccc(-c4ccc(C#N)cc4)cc3)CC2)ccc2c1C(C)(C)CCC2(C)C | 411 nM |
| Clc1cc(Cl)c2c(c1)C(NCCCNc1nc3ccccc3[nH]1)CCO2 (stereo not given) | 325 nM |
| O=C(NCCc1ccccc1)N(Cc1ccccc1-c1cccc(CNC2CCCC2)c1)C1CCN(Cc2ccccc2)CC1 | 832 nM |
| COc1ccc2ncc(F)c(CCN3CC(O)C(CNCc4ccccc4)C3)c2n1 (stereo not given) | 910 nM |
| COC(=O)c1ccc(NC(=O)c2ccc(CCN3CCC(c4nc(COCC(F)(F)F)c(-c5ccc(F)cc5)o4)CC3)cc2)cc1 | 1040 nM |
| CS(=O)(=O)c1ccc(CCNCc2ccc(-c3ccc(CN(C(=O)c4ccc(Cl)nc4)C4CCN(Cc5ccccc5)CC4)cc3)nc2)cc1 | 801 nM |
| COc1ccc2nccc([C@@H](O)CN3CCC(NC(=O)c4ccc(Cl)c(Cl)c4)CC3)c2c1 | 614 nM |
| CCOc1ccc(C(C)NC(=O)Cc2ccccc2F)cc1OCC (stereo not given) | 844 nM |
| CC(C)c1ccc(S(=O)(=O)N(c2ccc3c(c2)OCO3)C2CCN(Cc3ccccc3)C2)cc1 (stereo not given) | 350 nM |
| Cc1cccc2nc(-c3cccc(-c4ccc(NC(=O)NC(C)C)cc4)c3)[nH]c12 | 754 nM |
| CN(C)CCNCc1cccc(-c2ccc3c(Nc4ccc(Oc5ccccn5)cc4)ccnc3c2)c1 | 233 nM |
| O=C(C=Cc1ccc(Cl)c(Cl)c1)NCCCCCN1CCC(CCCNC(=O)/C=C/c2ccccc2)CC1 | 592 nM |
| NC(=O)c1ccccc1OCC(=O)Nc1cccc(-c2cccc(-c3nc4ccccc4[nH]3)c2)c1 | 376 nM |
| CS(=O)(=O)N(c1ccccc1)c1cc(C(=O)N[C@@H](Cc2ccccc2)[C@H](O)CNC2CC2)cc(N2CCCC2=O)c1 | 305 nM |
| COc1ccc2ncc(F)c(CCN3CCC(NCc4cnc5c(c4)NC(=O)CS5)CC3)c2c1 | 575 nM |
| O=C(NCCN1CCCCC1)c1ccc(CNC(=O)c2ccc(O)c(-c3ccc(Cl)c(Cl)c3)c2)cc1 | 900 nM |
| CCCCOc1c(CCNCCCCNCCc2cc(F)c3ccccc3c2OCCCC)cc(F)c2ccccc12 | 629 nM |
| N#Cc1ccc(CN2CCC(NC(=O)c3ccc(-c4nnc(-c5cccc6ccccc56)o4)cc3)CC2)cc1 | 684 nM |
| COc1ccc(Nc2nccc(-c3c(-c4cccc(NC(=O)c5c(F)cccc5F)c4)nn4ccccc34)n2)cc1Cl | 284 nM |
| Fc1ccc2[nH]c(-c3ccc(-c4ccc(CNCCc5ccncc5)cc4)s3)nc2c1 | 142 nM |
| Oc1cccc(CNCCCN(Cc2ccccc2)c2ccccc2)c1 | 600 nM |
| COc1cc2nc(N3CCN(c4cc(C)ccc4C)CC3)nc(N)c2cc1OC | 851 nM |

| Compound | XC50 |
| --- | --- |
| CC(=O)N(C)/N=C/[C@H](CCc1ccccc1)NC(=O)[C@H](CC(C)C)NC(=O)c1cccc(OCCN2CCOCC2)c1 | 332 nM |
| COc1cc(C(=O)N2C(c3nccs3)C(C(=O)N(OC)C(C)c3ccccc3)CC2(CC(C)C)C(=O)OC(C)(C)C)ccc1C(C)(C)C (stereo not given) | 1070 nM |
| Cc1cccc2nc(-c3ccc(-c4cccc(NC(=O)CCc5c[nH]cn5)c4)cc3)[nH]c12 | 410 nM |
| CCn1ccc2c(N3CCCC3=O)cc(C(=O)N[C@@H](Cc3ccccc3)[C@H](O)CNC(C)(C)CCCC(C)C)cc21 | 347 nM |
| CCc1ccc(CNCC(CCNc2cc(=O)c3ccccc3[nH]2)NCc2cc(Br)cc(Br)c2)o1 (stereo not given) | 638 nM |
| C[C@H](Cc1ccc(OCCCCCCOc2ccc(C[C@@H](C)N[C@H](C)c3ccccc3)cc2)cc1)NC[C@H](O)c1cccc(Cl)c1 | 241 nM |
| COc1ccc(NC(=S)NC(NC(=O)CF)C(Cl)(Cl)Cl)cc1[N+](=O)[O-] (stereo not given) | 479 nM |
| CC(C)Sc1nc(-c2ccccc2)nc2c1COC(C)(C)C2 | 857 nM |
| Cc1cc(O)nc(NC#N)n1 | 166 nM |
| COc1ccc(-c2ccc(NC(=O)c3cccc(Cl)c3)cc2)cc1CN1CCCC1 | 705 nM |
| CN(C)c1ccc(C=C2SC(=O)N=C2Nc2ccccc2)cc1 | 32.1 nM |
| CCCN(CCC)CCCN(CCCN(CCC)CCC)c1cc(C)nc(Nc2ccc(Cl)cc2)n1 | 168 nM |
| COc1ccc(CN(C)Cc2ccc(NC(=O)c3cccc4c(=O)c5cccc(C)c5[nH]c34)cc2)cc1OC | 844 nM |
| COc1cc(F)c2ncc(F)c(CCN3C[C@H](CNCc4ccc5c(n4)NC(=O)CS5)[C@H](O)C3)c2c1 | 462 nM |
| CC(C)C[C@H](NC(=O)c1cc(-c2ccc(F)cc2)no1)C(=O)O.CC(C)C[C@H](NC(=O)c1conc1-c1ccc(F)cc1)C(=O)O | 979 nM |
| O=C(Nc1ccc(-c2csc(-c3nc4ccccc4[nH]3)c2)cc1)Nc1ccsc1 | 552 nM |
| CC(=O)Nc1ccc(CN2CCC(N(C)c3cc(NC(=O)c4ccc(F)cc4)ccn3)CC2)cc1 | 1120 nM |
| O=C(CN1CCCCC1)Nc1ccc(Nc2nccc(NCC(O)c3ccccc3)n2)cc1 (stereo not given) | 583 nM |
| C=CCOC(=O)N1CCC(CNCc2cccc(-c3cccc(-c4nc5cccc(C)c5[nH]4)c3)c2)C1 (stereo not given) | 109 nM |
| COC(=O)c1cccc(CNCc2cccc(-c3ccc(-c4nc5ccccc5[nH]4)s3)c2)c1 | 491 nM |
| CC[C@H](C)CNC(=O)c1cncc(-c2ccc(CNCC3CNCCCO3)cc2)c1 (stereo not given in full) | 1020 nM |
| CCCCCOc1ccc(C(O)C(CCC(CN2CCCCCC2)C(O)c2ccc(OCCCCC)cc2)CN2CCCCCC2)cc1 (stereo not given) | 768 nM |
| Nc1nc(N)c2c(CCc3ccc4ccccc4c3)cccc2n1 | 693 nM |

From ChEMBL document CHEMBL1157539, “Thousands of chemical starting points for antimalarial lead identification” (Nature, 2010)
